Measurements published in patent US20040253665A1, “Novel peptide-producing enzyme, microbe producing the enzyme and method for dipeptide synthesis using them” (AJINOMOTO CO., INC., priority 2002, published 2004).
Where two headings read alike, the source gives them in different places. Residues, ends and D or L forms follow the SMILES beside them.

Key:
[1] = system: Empedobacter brevis strain FERM BP-8113 microbial cells; assay: Production of peptide using microbial cells of Empedobacter brevis; assay type: cell-based; conditions: microbial cell suspension 100 g/L mixed 1:1 with 200 mM carboxy component and 400 mM amino acid, pH 9.0, 10 mM EDTA, 18° C., 2 hours
Experimental: A 50 mL medium (pH 6.2) containing 5 grams (hereinafter, “g”) of glucose, 5 g of ammonium sulfate, 1 g of monopotassium phosphate, 3 g of dipotassium phosphate, 0.5 g of magnesium sulfate, 10 g of yeast extract and 10 g of peptone in 1 liter (hereinafter, “L”) was transferred to a 500 mL Sakaguchi flask and sterilized at 115° C. for 15 minutes. This medium,was then inoculated with one loopful of the culture broth of Empedobacter brevis strain FERM BP-8113 (Depositary institution: National Institute for Advanced Industrial Science and Technology, International Patent Organism Depositary, Address of depositary institution: Chuo Dai-6, 1-1 Higashi 1-Chome, Tsukuba-shi, Ibaraki-ken, Japan, International deposit transfer date: Jul. 8, 2002) that had been cultured at 30° C. for 16 hours in the same medium, followed by shake culturing at 30° C. for 16 hours and 120 strokes/min.

[2] = system: peptide-producing enzyme (Mono S fraction) from Empedobacter brevis strain FERM BP-8113; assay: Enzyme substrate specificity (1)-(10), (13), (14); assay type: biochemical; conditions: L-amino acid 150 mM, pH 9.0, 25° C., 3 hours
Method in brief: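 Mono S-purified peptide-forming enzyme from Empedobacter brevis FERM BP-8113, given L-amino acid esters (hydrochlorides) or amides as carboxy component with amino acids, C-protected amino acids, methylamine, β-amino acids or peptides as amine component. Dipeptide/oligopeptide product quantified; Tween-80 0.1% added with L-Trp-OMe.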

[3] = system: enzyme (SP-Sepharose HP fraction) derived from Sphingobacterium sp. strain FERM BP-8124; assay type: biochemical; parameters: key to Produced peptide (mM): +: those peptides for which production was confirmed but which were unable to be quantified due to the absence of a standard; a trace amount; conditions: 0.33 units enzyme, pH 9.0, 25° C., 1.5 hours
Experimental: Substrate specificity was examined for enzyme derived from Sphingobacterium sp. strain FERM BP-8124 (Depositary institution: National Institute for Advanced Industrial Science and Technology, International Patent Organism Depositary, Address of depositary institution: Central. 6, 1-1-1 Higashi, Tsukuba City, Ibaraki Prefecture, Japan, International deposit date: Jul. 22, 2002). 100 μl of 100 mM borate buffer (pH 9.0) containing the various carboxy components at a final concentration of 100 mM and the various amine components at a final concentration of 150 mM shown in Tables 15-1 to 15-4, the SP-Sepharose HP fraction enzyme purified in Example 22 (addition of 0.33 units in the reaction liquid) and 10 mM EDTA were allowed to react at 25° C. for 1.5 hours. […] In addition, hydrochlorides were used for all carboxy components.
Substrate specificity with respect to oligopeptide production was examined for enzyme derived from Sphingobacterium sp. strain FERM BP-8124 (Depositary institution: National Institute for Advanced Industrial Science and Technology,.International Patent Organism Depositary, Address of depositary institution: Chuo Dai-6, 1-1 Higashi 1-Chome, Tsukuba-shi, Ibaraki-ken, Japan, International deposit date: Jul. 22, 2002). A 100 μl aliquot of 100 mM borate buffer (pH 9.0) containing the various carboxy components at a final concentration of 100 mM and the various amine components at a final concentration of 150 mM shown in Table 16, the SP-Sepharose HP fraction enzyme purified in Example 22 (addition of 0.33 units in the reaction liquid) and 10 mM EDTA were allowed to react for 1.5 hours at 25° C. Furthermore, hydrochloride salts were used for all carboxy components.

[4] = system: peptide-producing enzyme (Mono S fraction) from Empedobacter brevis strain FERM BP-8113; assay: Enzyme substrate specificity (1)-(10), (13), (14); assay type: biochemical; parameters: key: +: those peptides for which production was confirmed but which were unable to be quantified due to the absence of a standard; a trace amount; conditions: pH 9.0, 25° C., 3 hours
From the text: Ester specificity was examined in the case of using L-amino acid ester for the carboxy component. […] The amounts of L-Ala-L-Gln produced in this reaction are shown in Table 4 (HCl represents hydrochloride in Table 4). Peptide production was examined in the case of using L-alanine methyl ester for the carboxy component and using various L-amino acids for the amine component. […] (The “+” mark indicates those peptides for which production was confirmed but which were unable to be quantified due to the absence of a standard, while “tr” indicates a trace amount.) Peptide production was examined in the case of using various types of L-amino acid methyl esters for the carboxy component and using L-glutamine for the amine component. […] Peptide production was examined in the case of using various L-amino acid methyl esters for the carboxy component and various L-amino acids for the amine component. […] (The “tr” indicates a trace amount.) Furthermore, Tween-80 was added to the reaction system to a final concentration of 0.1% in the case of using L-Trp-OMe. (The “+” mark indicates those peptides for which production was confirmed but which were unable to be quantified due to the absence of a standard.) […] (The “tr” indicates a trace amount.) Peptide production was examined using various L-amino acid amides for the carboxy component, and various L-amino acids for the amine component. […] Peptide production was examined in the case of using various L-alanine methyl esters for the carboxy component and C-protected L-amino acids for the amine component. […] Peptide production was examined in the case of using various amino acid methyl esters for the carboxy component and methylamine for the amine component. […] Peptide production was examined in the case of using β-amino acid ester for the carboxy component or β-amino acid for the amine component. […] (The “tr” indicates a trace amount.) Oligopeptide production was examined in the case of using L-amino acid ester for the carboxy component and peptide for the amine component. […] Substrate specificity was additionally assessed using the same enzyme fraction as that used in Example 5. […] (A “+” mark indicates those for which production was confirmed but which were unable to be quantified due to the absence of a standard, while “tr” indicates a trace amount). Substrate specificity with respect to oligopeptide production was assessed using the same enzyme fraction as Example 26. […] (A “+” mark indicates those for which production was confirmed but which were unable to be quantified due to the absence of a standard, while “tr” indicates a trace amount). It should be noted that hydrochlorides were used for all of the carboxy components.

[5] = Comparison of ability to catalyze peptide production with known enzymes; assay type: biochemical; conditions: for L-Ala-L-Gln production rate: 100 mM L-alanine methyl ester, 200 mM L-glutamine, borate buffer pH 9.0, 25° C., enzyme amount as in Table 14; for Ratio of L-Ala-L-Gln production rate per enzyme unit weight: enzyme of present invention = 100.0
[6] = 100 mM L-alanine methyl ester hydrochloride
[7] = L-amino acid amide hydrochloride 100 mM as carboxy component
[8] = Table 15-1, carboxy component 100 mM, amine component 150 mM
[9] = Table 15-4, amides or methylamine as components, 100 mM / 150 mM
[10] = 100 mM L-alanine methyl ester hydrochloride, L-amino acid 150 mM
[11] = L-amino acid methyl ester hydrochloride 100 mM
[12] = Table 15-3, carboxy component 100 mM, amine component 150 mM

Row | Produced peptide [2, 6] | Produced peptide [3, 8] | Produced peptide [2, 11] | Produced peptide [3, 12] | Molecule | Produced peptide [1] | further results
1 | 83.3 mM | 86.9 mM |  |  | CSCC[C@H](NC(=O)[C@H](C)N)C(=O)O [L-Ala-L-Met] (H-Ala-Met-OH) | 68.3 mM | Produced peptide [2, 7]: 3.4 mM; Produced peptide (mM) [3, 9]: tr
2 |  |  |  |  | NC(=O)CC[C@H](NC(=O)[C@@H](N)CC(=O)O)C(=O)O [α-L-Asp-L-Gln] (H-Asp-Gln-OH) |  | Produced peptide ([3]; Table 15-2, carboxy component 100 mM, L-Gln 150 mM): 0.05 mM; Produced peptide (mM) ([4]; L-amino acid methyl ester hydrochloride 100 mM, 150 mM L-glutamine): tr
3 | 66.9 mM | 73.6 mM |  |  | C[C@H](N)C(=O)N[C@@H](Cc1cnc[nH]1)C(=O)O [L-Ala-L-His] (H-Ala-His-OH) | 52.1 mM | Produced peptide [2, 7]: 3.9 mM; Produced peptide (mM) [3, 9]: tr
4 |  | 1.5 mM |  |  | C[C@H](N)C(=O)N1CCC[C@H]1C(=O)O [L-Ala-L-Pro] (H-Ala-Pro-OH) |  | Produced peptide (mM) [4, 10]: tr
5 |  |  | 34.0 mM | 8.9 mM | CSCC[C@H](N)C(=O)N[C@@H](Cc1ccccc1)C(=O)O [L-Met-L-Phe] (H-Met-Phe-OH) | 28.5 mM | 
6 | 45.3 mM | 33.0 mM |  |  | CC(C)C[C@H](NC(=O)[C@H](C)N)C(=O)O [L-Ala-L-Leu] (H-Ala-Leu-OH) | 38.2 mM | 
7 |  |  |  |  | Bromelain |  | L-Ala-L-Gln production rate [5]: 0.0062 mM/min; Ratio of L-Ala-L-Gln production rate per enzyme unit weight [5]: 0.0010
8 |  |  | 31.6 mM | 36.2 mM | NCC(=O)N[C@@H](Cc1cnc[nH]1)C(=O)O [Gly-L-His] (H-Gly-His-OH) | 22.1 mM | 
9 |  |  | 10.0 mM | 5.1 mM | CC[C@H](C)[C@H](N)C(=O)N[C@@H](CCSC)C(=O)O [L-Ile-L-Met] (H-Ile-Met-OH) | 8.3 mM | 
10 | 74.4 mM | 69.5 mM |  |  | C[C@H](N)C(=O)N[C@@H](Cc1ccccc1)C(=O)O [L-Ala-L-Phe] | 62.4 mM | 
11 |  |  | 28.4 mM | 15.3 mM | CC(C)C[C@H](NC(=O)[C@@H](N)[C@@H](C)O)C(=O)O [L-Thr-L-Leu] (H-Thr-Leu-OH) | 23.0 mM | 
12 |  |  |  |  | Chymopapain: thiol endopeptidase described in EP 359399B1, purified enzyme manufactured by Sigma |  | L-Ala-L-Gln production rate [5]: 0.0100 mM/min; Ratio of L-Ala-L-Gln production rate per enzyme unit weight [5]: 0.0013
13 | 62.5 mM | 43.8 mM |  |  | C[C@H](N)C(=O)N[C@@H](CO)C(=O)O [L-Ala-L-Ser] (H-Ala-Ser-OH) | 51.3 mM | 
14 | 88.0 mM | 72.2 mM |  |  | C[C@H](N)C(=O)N[C@@H](CCCN=C(N)N)C(=O)O [L-Ala-L-Arg] (H-Ala-Arg-OH) | 72.1 mM | 
15 |  |  |  |  | C[C@H](N)C(=O)N[C@@H](CS)C(=O)O [L-Ala-L-CySH] (H-Ala-Cys-OH) |  | Produced peptide (mM) [3, 8]: +; Produced peptide (mM) [4, 10]: +
16 |  |  | 10.3 mM | 6.8 mM | CSCC[C@H](NC(=O)[C@@H](N)C(C)C)C(=O)O [L-Val-L-Met] (H-Val-Met-OH) | 10.5 mM | 
17 |  |  |  |  | Ficin |  | L-Ala-L-Gln production rate [5]: 0.0096 mM/min; Ratio of L-Ala-L-Gln production rate per enzyme unit weight [5]: 0.0017
18 |  |  | 38.0 mM | 9.9 mM | N[C@@H](CO)C(=O)N[C@@H](CO)C(=O)O [L-Ser-L-Ser] (H-Ser-Ser-OH) | 29.0 mM | 
19 |  |  |  |  | Carboxypeptidase Y: known enzyme described in EP 278787A1, purified enzyme manufactured by Sigma (protein, UniProt P00729 112-532, looked up) Carboxypeptidase Y: KIKDPKILGIDPNVTQYTGYLDVEDEDKHFFFWTFESRNDPAKDPVILWLNGGPGCSSLTGLFFELGPSSIGPDLKPIGNPYSWNSNATVIFLDQPVNVGFSYSGSSGVSNTVAAGKDVYNFLELFFDQFPEYVNKGQDFHIAGESYAGHYIPVFASEILSHKDRNFNLTSVLIGNGLTDPLTQYNYYEPMACGEGGEPSVLPSEECSAMEDSLERCLGLIESCYDSQSVWSCVPATIYCNNAQLAPYQRTGRNVYDIRKDCEGGNLCYPTLQDIDDYLNQDYVKEAVGAEVDHYESCNFDINRNFLFAGDWMKPYHTAVTDLLNQDLPILVYAGDKDFICNWLGNKAWTDVLPWKYDEEFASQKVRNWTASITDEVAGEVKSYKHFTYLRVFNGGHMVPFDVPENALSMVNEWIHGGFSL |  | L-Ala-L-Gln production rate [5]: 0.0257 mM/min; Ratio of L-Ala-L-Gln production rate per enzyme unit weight [5]: 0.0191
20 |  |  |  |  | Papain: thiol endopeptidase described in EP 359399B1, purified enzyme manufactured by Sigma (protein, UniProt P00784 134-345, looked up) Papain: IPEYVDWRQKGAVTPVKNQGSCGSCWAFSAVVTIEGIIKIRTGNLNEYSEQELLDCDRRSYGCNGGYPWSALQLVAQYGIHYRNTYPYEGVQRYCRSREKGPYAAKTDGVRQVQPYNEGALLYSIANQPVSVVLEAAGKDFQLYRGGIFVGPCGNKVDHAVAAVGYGPNYILIKNSWGTGWGENGYIRIKRGTGNSYGVCGLYTSSFYPVKN |  | L-Ala-L-Gln production rate [5]: 0.0106 mM/min; Ratio of L-Ala-L-Gln production rate per enzyme unit weight [5]: 0.0021
